The values that follow come from US6482800B1, “Methods to stimulate angiogenesis” (The University of Southern California, priority 1998, dated 2002).

Entries after “also recorded” stand apart in the source; their conditions may differ. Square brackets hold non-standard residues; d marks the D form. Ends that are not written are not given here. Nle = CCCC[C@H](N)C(=O)O

Assay [1] has as its system Ischemic Myocardial Tissue. In words: Formation of collateral circulation in ischemic myocardial tissue after coronary artery ligation. Format: in vivo, Rabbits. Particulars: rabbit, peptide 1 mg/ml; for Number of blood vessels present in the infarct site, Mean ± SEM: left circumflex and left anterior descending arteries ligated, 0.05 ml in Hydron vehicle injected in cardiac muscle, necropsy from day 7, microscopic examination; for Vascularization of the infarct site: 0.05 ml injected distal to coronary occlusion, versus vehicle. How it is done:
Rabbits underwent a surgical procedure under intramuscular anesthesia (Ketamine and Rompum) after shaving with animal clippers and preparation with betadine and isopropyl alcohol. A midline sternotomy was performed. After exposure of the pericardial sac, a three centimeter incision was made into the pericardium. After visualization of the epicardial surface, two coronary arteries, the left circumflex and the left anterior descending arteries, were exposed and ligated by 4-0 Vicryl suture. Vehicle (10% Hydron, 60% ethanol and 1% polyethylene glycol), with or without peptide (1 mg/ml, 0.05 ml) was injected in the cardiac muscle distal to the site of coronary occlusion. The sternum was then closed with 2-0 Silk. The muscle and skin were then closed with 3-0 Dexon II suture. Starting at 7 days after surgery, the animals were euthanized and necropsies performed. The number of blood vessels present in the infarct site was assessed grossly and by microscopic evaluation.

The target of a further assay is T1, AT2 receptor (Homo sapiens, UniProt P50052).
T1 sequence (P50052 1-363): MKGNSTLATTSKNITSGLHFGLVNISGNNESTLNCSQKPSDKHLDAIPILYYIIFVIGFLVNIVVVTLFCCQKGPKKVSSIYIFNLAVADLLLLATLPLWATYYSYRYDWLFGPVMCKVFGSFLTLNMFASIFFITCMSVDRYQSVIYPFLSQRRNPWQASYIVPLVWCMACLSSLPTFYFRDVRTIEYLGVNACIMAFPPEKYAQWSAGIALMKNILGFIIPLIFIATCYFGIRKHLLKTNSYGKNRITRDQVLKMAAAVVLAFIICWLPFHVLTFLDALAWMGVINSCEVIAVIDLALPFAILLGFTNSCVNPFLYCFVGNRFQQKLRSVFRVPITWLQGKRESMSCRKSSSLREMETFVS
Particulars: cited from earlier work.

Another assay deals with burn areas. Description: Partial thickness thermal injury model. Format: in vivo, Hartley guinea pigs. The settings on record: 1 mg/ml peptide in 10% low-viscosity CMC, topical on burn; day 7.
Assay [2] has as its system chick chorioallantoic membrane. Particulars: chick chorioallantoic membrane model; cited from earlier work.
The next assay concerns rabbit corneal eye. Particulars: rabbit corneal eye model; cited from earlier work.
A further assay has as its system rat kidneys. Particulars: cited from earlier work.
In assay [3] the test system is Living skin equivalent (LSE) graft tissue. In words: Engraftment of living skin equivalent (LSE) on full thickness skin excision. Format: in vivo, Swiss nude mice. The settings on record: LSE soaked 15 minutes in 1.0 mg/ml peptide; day 7; compared to untreated LSE. How it is done:
Male Swiss nude mice (22-24 g) were anesthetized with an intramuscular injection of Ketaset/Rompun and a 1 cm×1 cm full thickness skin excision was made on their dorsal surface. Living skin equivalent (LSE) was placed in the defect and trimmed with microscissors so that no gap was observed between the edges of the mouse skin and the LSE. The mice were divided into 6 groups based upon the peptide tested: (0 [LRS-Dextrose], or 1.0 mg/ml AII or AII analogues, AII (1-7) [SEQ ID NO:4]; Ala4AIII [SEQ ID NO:18]; Pro3AII [SEQ ID NO:31]; and Ile8AII [SEQ ID NO: 42]; see Table 3) and the LSE was soaked for 15 minutes in lactated Ringers solution with 5% dextrose with or without peptides prior to placement. After the graft was placed, the dorsal surface of the mouse was covered by petrolatum-embedded gauze followed by two adhesive bandages. After recovery from anesthesia, the mice were returned to their individual cages and observed daily until euthanasia. The mice received intramuscular analgesia for the first three days after surgery. No mouse lost its bandages prior to necropsy or bandage removal on day 7. The mice were necropsied on day 7. At necropsy, the degree of graft take and the appearance of the grafted tissue was noted prior to placement of the biopsy in 10% buffered formalin in preparation for paraffin embedding and section for hematoxylin and eosin staining.

A short description of assay [4]: Unspecified test of effectiveness of AII fragments.

In the case of “Asp-Arg-Val-Tyr-Ile-His-Pro (DRVYIHP) [AII(1-7)]”, in assay [1], the “Number of blood vessels present in the infarct site, Mean ± SEM” value (from here on “Number of blood vessels present … Mean ± SEM”) is 80.6 ± 4.5 and the “Vascularization of the infarct site” value is “increase vascularization”.

Regarding “Asp-Arg-Val-Tyr-Ile-His-Pro-Phe (DRVYIHPF) [AII]”, in the assay with AT2 receptor, the “Affinity for AT2 relative to AT1” value is recorded as 100 times.

In the case of Asp-Arg-Val-Tyr-Ile-His-Pro-Phe [AII], the “Blood flow response (angiogenesis) after thermal injury, compared to control” value in the assay with burn areas was “increased blood flow response compared to control”. Moreover, the Angiogenic activity entry in assay [2] is listed as “angiogenic”. Moreover, the Angiogenic activity result in the assay with rabbit corneal eye is listed as “angiogenic”. In addition, the “Activation of collateral circulation via preformed blood vessels” value with rat kidneys is reported as “activate collateral circulation”. In assay [1], the “Number of blood vessels present … Mean ± SEM” value is 29.8 ± 12.3 and the “Vascularization of the infarct site” value is “increase vascularization”. In addition, in assay [3], the “Angiogenesis (vascular channel formation) in graft tissue” value is reported as “increased” and the “Endothelial cell production in graft tissue” value is listed as “increased”.

For “DR(nor)YIHP (DR[Nle]YIHP) [Analogue 9GD]”, in assay [1], the “Number of blood vessels present … Mean ± SEM” value is on record as 21.2 ± 2.8 and the “Vascularization of the infarct site” value is recorded as “increase vascularization”.

Turning to DRKYIHP [Analogue 5GD], in assay [1], the “Number of blood vessels present … Mean ± SEM” value was 24.55 ± 2.34 and the “Vascularization of the infarct site” value is “increase vascularization”.

As to DRPYIHP [Analogue 2GD], in assay [1], the “Number of blood vessels present … Mean ± SEM” value is 31.2 ± 5.62 and the “Vascularization of the infarct site” value is reported as “increase vascularization”.

For DRVAIHP [Analogue 1GD], in assay [1], the “Number of blood vessels present … Mean ± SEM” value was 23.4 ± 8.6 and the “Vascularization of the infarct site” value was “increase vascularization”.

Consider His-Pro-Phe (HPF) [AII(6-8)], for which the “Effectiveness (test not specified)” value in assay [4] was “not to be effective”.

Tyr-Ile-His-Pro-Phe (YIHPF) [AII(4-8)]: in assay [4], the “Effectiveness (test not specified)” value is given as “not to be effective; also recorded: ineffective”.
